According to PMC9867442, “Indole Derivatives Bearing Imidazole, Benzothiazole-2-Thione or Benzoxazole-2-Thione Moieties—Synthesis, Structure and Evaluation of Their Cytoprotective, Antioxidant, Antibacterial and Fungicidal Activities” (Molecules, 2023):

Assays:
[1] = system: human red blood cells (RBC); assay: Hemolysis assay under the compounds tested; format: cell-based; details: 0.1 mg/mL, 60 min, 37 °C, PBS pH 7.4
Description: The erythrocytes were washed three times (3000 rpm, 10 min, +4 °C) in 7.4 pH phosphate buffered saline (PBS: 137 mM NaCl, 2.7 mM KCl, 10 mM Na2HPO4, 1.76 mM KH2PO4) supplemented with 10 mM glucose. After washing, RBC were suspended in the PBS buffer at 1.65 × 10^9 cells/mL, stored at +4 °C, and used within 5 h.
The cytotoxic activity of the compounds tested was determined by a standard hemolytic assay according to Mrówczyńska and Hägerstrand [57]. Briefly, RBC (1.65 × 10^8 cells/mL, ~1.5% hematocrit) were incubated in PBS buffer (7.4 pH) supplemented with 10 mM glucose and containing compounds tested (0.1 mg/mL) for 60 min at 37 °C in a shaking water bath. Samples with RBC incubated in PBS without compounds tested were taken as the control. Each sample was repeated three times, and the experiments were repeated 3 times with RBC from different donors. After incubation, the RBC suspensions were centrifuged (3000 rpm, 10 min), and the degree of hemolysis was estimated by measuring the absorbance (Ab) of the supernatant at 540 nm. The results were expressed as a percentage (%) of hemolysis which was determined using the following equation:Hemolysis (%) = (sample Ab/positive control Ab) × 100% were positive control is Ab of supernatant of RBC in ice-cold H2O.

Bacillus subtilis = assay: Antibacterial well-diffusion method; format: cell-based; details: 0.1 mL of compound in DMSO, 48 h, 27 °C
Description: (§1) The antimicrobial properties of compounds were determined against selected bacteria: Micrococcus luteus, Bacillus subtilis, Escherichia coli and Pseudomonas fluorescens which came from the collection of Pure Cultures of the Facility of Microbiology of the Department of Soil Science and Microbiology of the Poznan University of Life Sciences. The well-diffusion method was used to evaluate the antimicrobial properties of compounds. 6 mL each of liquidized broth medium was poured into sterile Petri dishes and allowed to solidify. After which, two sterile glass rings with a diameter of 0.5 cm were placed on the surface of each plate. Then 20 mL each of liquid broth medium containing suspensions of the tested bacterial strains at a density of 10^7 cells/cm3, obtained from 48-h cultures on broth […], was introduced. After the medium solidified, the glass rings were removed with a pencil, obtaining two wells on each plate. 0.1 mL of compound dissolved in pure dimethyl sulphoxide was introduced into one well, and 0.1 mL of pure dimethyl sulphoxide was introduced into the other well, which was as a control. Each compound was tested in four replicates. The plates were incubated for 48 h in a thermostat at 27 °C for M. luteus, B. subtilis and P. fluorescens cultures, and the E. coli culture at 37 °C. At the end of the incubation, the diameters of growth inhibition of the tested strains were measured using calipers.

Escherichia coli = assay: Antibacterial well-diffusion method; format: cell-based; details: 0.1 mL of compound in DMSO, 48 h, 37 °C
Description: as §1

Micrococcus luteus = assay: Antibacterial well-diffusion method; format: cell-based; details: Micrococus luteus, 0.1 mL of compound in DMSO, 48 h, 27 °C
Description: as §1

Pseudomonas fluorescens = assay: Antibacterial well-diffusion method; format: cell-based; details: 0.1 mL of compound in DMSO, 48 h, 27 °C
Description: as §1

Coniophora puteana (Cp) = assay: Antifungal agar-plate method; format: cell-based; details: Coniophora puteana, read-out: Antifungal activity (inhibition of mycelial growth); for inhibition of growth at 0.0001 %: concentration 0.0001%; for inhibition of growth at 0.001 %: concentration 0.001%; for inhibition of growth at 0.01 %: concentration 0.01%; for inhibition of growth at 0.1 %: concentration 0.1%
Description: (§2) Fungal strains: Coriolus versicolor (Cv), Poria placenta (Pp), Coniophora puteana (Cp) and Gloeophyllum trabeum (Gt) were used as a test organism for the experimental determination of the antifungal activity of 1–11. The fungus were obtained from the collection of the Department of Wood Chemical Technology, Faculty of Forestry and Wood Technology, Poznań, University of Life Sciences, Poland. The fungal growth rates were measured in 90 mm-diameter plastic dishes using the agar-plate method, described by Ważny and Thorton. Five concentrations of gramine and its derivatives in the range of 0.1% to 0.00001% were studied. The compound was applied on the agar (2% agar and 5% malt-extract) prepared on the Petri dish and previously autoclaved. The combination of the compound and fungus was repeated three times. Given sample was centrally inoculated with a 5 mm diameter disc taken from the submargin of 5-day-old malt agar plates. The plates were incubated in darkness at 21 ± 2 °C and 70 ± 5% relative air humidity. The growth duration was determined by the total coverage of the reference plate. The radius of the area covered by the fungus compared with the reference agar plate was employed to calculate the effective doses, ED50, of preservative concentrations retarding the fungal growth rate by 50%.

Coriolus versicolor (Cv) = assay: Antifungal agar-plate method; format: cell-based; details: Trametes versicolor, read-out: Antifungal activity (inhibition of mycelial growth); for inhibition of growth at 0.0001 %: concentration 0.0001%; for inhibition of growth at 0.001 %: concentration 0.001%; for inhibition of growth at 0.01 %: concentration 0.01%; for inhibition of growth at 0.1 %: concentration 0.1%
Description: as §2

[2] = system: Gloeophyllum trabeum (Gt); assay: Antifungal agar-plate method; format: cell-based; details: Gloeophyllum trabeum, read-out: Antifungal activity (inhibition of mycelial growth); for inhibition of growth at 0.0001 %: concentration 0.0001%; for inhibition of growth at 0.001 %: concentration 0.001%; for inhibition of growth at 0.01 %: concentration 0.01%; for inhibition of growth at 0.1 %: concentration 0.1%
Description: as §2

Poria placenta (Pp) = assay: Antifungal agar-plate method; format: cell-based; details: read-out: Antifungal activity (inhibition of mycelial growth); for inhibition of growth at 0.0001 %: concentration 0.0001%; for inhibition of growth at 0.001 %: concentration 0.001%; for inhibition of growth at 0.01 %: concentration 0.01%; for inhibition of growth at 0.1 %: concentration 0.1%
Description: as §2

[3] = Ferrous ions (Fe2+) chelating activity (ferrozine); details: 0.1 mg/mL, 10 min, room temperature
Description: Ferrous ions (Fe^2+) chelating activity was evaluated by inhibition of the formation of Fe^2+-ferrozine complex after incubation of the compounds tested with Fe^2+. The Fe^2+-chelating ability of compounds tested was determined by the absorbance of the ferrous ion-ferrozine complex at 562 nm. In brief, 0.1 mg/mL concentration of the compounds tested in 0.2 mL ethyl alcohol were added to a solution of 0.6 mM FeCl2 (0.05 mL). EDTA (ethylenediaminetetraacetic acid) was used as the standard EDTA chelating agent. The reaction was started by the addition of 5 mM ferrozine (0.05 mL) in ethyl alcohol and shaken vigorously immediately. The samples were stored for 10 min at room temperature (~22 °C). Following incubation, the absorbance (Abs) of the solutions was measured at 562 nm in a spectrophotometer. The percentage of inhibition of ferrozine—Fe^2+ complex formation was calculated using the equation: Fe^2+ chelating effect (%) = [1 − (Abs1/Abs0)] × 100% where Abs0 is the absorbance of the sample without the tested compound and Abs1 is the absorbance in the presence of the compound tested. Each sample was made in triplicate, and three independent experiments were performed.

Structure (SMILES)	Zone of Growth Inhibition (Bacillus subtilis) [mm]	Zone of Growth Inhibition (Escherichia coli) [mm]	Zone of Growth Inhibition (Micrococcus luteus) [mm]	Zone of Growth Inhibition (Pseudomonas fluorescens) [mm]	inhibition of growth at 0.0001 % (Coniophora puteana (Cp)) [%]	inhibition of growth at 0.001 % (Coniophora puteana (Cp)) [%]	inhibition of growth at 0.01 % (Coniophora puteana (Cp)) [%]	inhibition of growth at 0.1 % (Coniophora puteana (Cp)) [%]	inhibition of growth at 0.0001 % (Coriolus versicolor (Cv)) [%]	inhibition of growth at 0.001 % (Coriolus versicolor (Cv)) [%]	inhibition of growth at 0.01 % (Coriolus versicolor (Cv)) [%]	inhibition of growth at 0.1 % (Coriolus versicolor (Cv)) [%]	inhibition of growth at 0.0001 % [2] [%]	inhibition of growth at 0.001 % [2] [%]	inhibition of growth at 0.01 % [2] [%]	inhibition of growth at 0.1 % [2] [%]	inhibition of growth at 0.0001 % (Poria placenta (Pp)) [%]	inhibition of growth at 0.001 % (Poria placenta (Pp)) [%]	inhibition of growth at 0.01 % (Poria placenta (Pp)) [%]	inhibition of growth at 0.1 % (Poria placenta (Pp)) [%]	also measured
Cc1nccn1Cc1c[nH]c2ccccc12 [Compound 3, 3-((2-methyl-1H-imidazol-1-yl)methyl)-1H-indole]	1	1	3	16	0	0	48	100	0	1	35	100	15	19	44	100	0	0	48	100	Hemolytic activity [1]: 3.6%; melting point: 173 to 174 °C
c1ccc2c(c1)ncn2Cc1c[nH]c2ccccc12 [Compound 9, 1-((1H-indol-3-yl)methyl)-1H-benzo[d]imidazole]	2.7	3	4.3	0	0	0	40	100	0	6	44	100	17	28	48	100	0	23	37	100	Hemolytic activity [1]: 23%; Chelating activity [3]: 4%; melting point: 214 to 216 °C
S=c1sc2ccccc2n1Cc1c[nH]c2ccccc12 [Compound 10, 3-((1H-indol-3-yl)methyl)benzo[d]thiazole-2(3H)-thione]	0	1	2.6	0	0	40	57	100	0	20	49	100	0	38	59	100	34	54	71	100	Chelating activity [3]: 12%; melting point: 187 to 190 °C
S=c1oc2ccccc2n1Cc1c[nH]c2ccccc12 [Compound 11, 3-((1H-indol-3-yl)methyl)benzo[d]oxazole-2(3H)-thione]	0	2.7	4	0	0	43	44	100	0	2	26	100	17	39	47	100	0	56	64	100	Chelating activity [3]: 29%; melting point: 157 to 159 °C
